Holding throughout (experiment): inhibition of tumour cell growth, NCI panel, 48 h
The test system of assay [1] is CAKI-1 renal.
The test system of assay [2] is HL-60(TB) leukemia.
Assay [3] concerns HS 578T breast.
Assay [4] relates to MCF7 breast.
The subject of assay [5] is NCI/ADR-RES ovarian.
For assay [6], the system named is OVCAR-5 ovarian.
Assay [7] concerns RXF 393 renal.
The test system of assay [8] is SNB-19 CNS.
In assay [9] the test system is TK-10 renal.
Assay [10] concerns HOP-92 NSCLC.

Values joined by “and” are separate entries in the source; they are usually repeats but may differ in a detail not shown here. Identical values can stand only once.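 Cells were grown in 96-well plates and exposed to each compound for 48 hours at five concentrations; endpoints were interpolated linearly between bracketing concentrations, or set to the highest concentration if not reached. GI50 = concentration required for 50% inhibition of growth. TGI: total growth inhibition.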

As to `O=C(N/N=C/c1ccc(Br)cc1)N/N=C/c1ccc(Br)cc1`, the TGI was 18 µM in assay [1]; 31.1 µM in assay [2]; 10.8 µM in [3]; greater than 100 µM in assay [4]; 29.6 µM in assay [5]; 95.8 µM in [6]. Further, the TGI in assay [7] worked out at 40.5 µM; in assay [8] it was 16.6 µM; in assay [9], 5.39 µM.

As to `COc1c(O)c2c(=O)cc(OC)c3c4c(OC)cc(=O)c5c(O)c(OC)c6c(c(c1C(C(C)O)C6C(C)O)c23)c54` (configuration not stated), the TGI stood at 0.842 µM in assay [1]; 1.67 µM in [2]; 1.49 µM in [10]; 6.07 µM in assay [3]; 4.04 µM in assay [4]; 3.66 µM in assay [5]. The TGI worked out at 7.62 µM in assay [6], 1.76 µM in [7], 6.22 µM in [8] and 4.66 µM in [9].

Regarding `O=c1[nH]c(=O)n(C2CC(O)C(CO)O2)cc1OCc1ccccc1` (configuration not stated), the TGI in assay [1], in [2], in [3], in assay [4], in assay [5] and in [6] was greater than 100 µM in each case. Also, the TGI in [7], in assay [8] and in [9] was greater than 100 µM throughout.

Regarding `C=C(CN(C)C)C(=O)c1ccccc1[N+](=O)[O-]`, the GI50 in [1] was 1.55 µM; in assay [10], 2.11 µM; in [4] it was 5.02 µM; in assay [5], 5.61 µM; in assay [6] it was 16.3 µM; in [7], 1.99 µM. Further, the GI50 was 23.3 µM in assay [8] and 12.9 µM in assay [9]. Further, the TGI in [1] was 28.2 µM and 2.88 µM; in assay [2] it was 8.2 µM; in [10], 18.5 µM and 5.11 µM; in [3], 77.1 µM; in assay [4], 31.1 µM and 24.5 µM; in assay [5] it was 48.9 µM. Further, the TGI is 29.4 µM and 31.1 µM in assay [6]; 30.2 µM and 4.32 µM in assay [7]; > 68.2 µM and 47.7 µM in assay [8]; 34.3 µM and 26.3 µM in assay [9].

Consider `CCOC(=O)C1CCC(=O)N1C(=O)c1ccccc1` (configuration not stated), for which the TGI in assay [1], in assay [2], in assay [10], in assay [3], in [4] and in assay [5] was greater than 100 µM throughout. Further, the TGI in [6], in assay [7], in [8] and in [9] was greater than 100 µM in each case.

As for `COC(=O)[C@H](Cc1ccccc1)NC(=O)CCCCCCC(=O)NO`, the TGI was greater than 100 µM in assay [1]; greater than 100 µM in assay [2]; 71.9 µM in [10]; greater than 100 µM in assay [3]; greater than 100 µM in assay [4]; greater than 100 µM in assay [5]. For the same molecule, the TGI is 43.9 µM in [6], 32.3 µM in [7], greater than 100 µM in [8] and 72.5 µM in assay [9].

On to `CCOP(=O)(/C=C\n1ccc(N)nc1=O)OCC`, for which the TGI in [1], in assay [2], in assay [3], in [4], in assay [5] and in [6] was greater than 100 µM throughout. Besides, the TGI in [7], in assay [8] and in assay [9] was greater than 100 µM in each case.

Consider `COc1ccc(NC(=S)NC(=O)c2ccc3c(c2)Sc2ccccc2O3)c([N+](=O)[O-])c1`, for which the TGI was greater than 100 µM in assay [1]; 82.1 µM in assay [2]; 44.9 µM in assay [10]; 43.2 µM in [3]; greater than 100 µM in assay [4]; greater than 100 µM in assay [5]. Further, the TGI is greater than 100 µM in [6], 75.6 µM in assay [7], 83.6 µM in [8] and 36.9 µM in assay [9].

For the molecule `COc1cc(NC(C)=O)ccc1C(=O)NN1C(=O)/C(=C/c2ccco2)N=C1c1ccccc1`, the TGI in assay [1], in assay [2], in assay [10], in assay [3], in [4] and in [5] was greater than 50 µM throughout. Moreover, the TGI in [6], in assay [7] and in [8] was greater than 50 µM in each case.

Regarding `COc1nc(C#CC(C)(C)C)nc(OC)n1`, the TGI in assay [1] was 51.9 µM; in assay [2], greater than 100 µM; in [3], 91.8 µM; in [4] it was 89.5 µM; in assay [5], 46.1 µM; in assay [6], 42.5 µM. Also, the TGI in [7] is greater than 100 µM; in assay [8], greater than 100 µM; in [9], 57.8 µM.

`C1=C\SS/C=C\SS/1`: the TGI in assay [2] was 35.4 µM; in [10], 97.3 µM; in assay [3] it was greater than 100 µM; in assay [4], 36.2 µM; in assay [5], greater than 100 µM; in [6], greater than 100 µM. Besides, the results for the TGI in [7], in assay [8] and in assay [9] were 88.1 µM, greater than 100 µM and greater than 100 µM, respectively.

For `C=Cc1ccccc1C1(O)C=CC(OC)(OC)C=C1`, the TGI in assay [1] is 18.4 µM; in assay [2], 6.38 µM; in assay [3], greater than 100 µM; in assay [4], 13.3 µM; in assay [5] it was 29.4 µM; in assay [6], 20.2 µM. The TGI amounted to 14.8 µM in assay [7], 30.8 µM in [8] and 10.7 µM in [9].

As to `CC(C)(C)c1cc(C(=O)/C=C/c2ccc3c(c2)OCO3)cc(C(C)(C)C)c1O`, the TGI in assay [1] is greater than 100 µM; in assay [2] it was 13.9 µM; in assay [10], greater than 100 µM; in assay [3] it was greater than 27.1 µM; in assay [4] it was greater than 100 µM; in assay [5], 16.8 µM. For the same molecule, the TGI was greater than 76.9 µM in assay [6], 7.58 µM in assay [7], greater than 70.2 µM in assay [8] and 58.1 µM in assay [9].

With `O=c1cc(-c2ccccc2)oc2c(-c3cc(Cl)cc4c(=O)cc(-c5ccccc5)oc34)cc(Cl)cc12`, the TGI in [2], in assay [3], in [4], in assay [5], in [6] and in assay [7] was greater than 100 µM in each case. The TGI in [8] and in [9] was greater than 100 µM throughout.

In the case of `S=c1cc(-c2ccc3c(c2)OCO3)s[nH]1`, the TGI in [1], in assay [2], in assay [10], in assay [3], in assay [4] and in assay [5] was greater than 100 µM throughout. Besides, the TGI in assay [6], in assay [7], in [8] and in assay [9] was greater than 100 µM each time.

On to `CC(=O)c1ccc2c(c1)CC1(C2)Cc2ccccc2C1=O` (configuration not stated), for which the TGI in assay [1] was greater than 100 µM; in assay [2] it was 70 µM; in [10], 95.9 µM; in assay [3], greater than 100 µM; in [4], greater than 100 µM; in assay [5] it was 75.6 µM. Moreover, the TGI in assay [6] was greater than 100 µM; in assay [7], greater than 100 µM; in assay [8], greater than 100 µM; in assay [9] it was 91.4 µM.

Take `[O-]/[N+](=C\c1ccccc1OC(=S)S)c1ccc(Cl)cc1`: the TGI is greater than 100 µM in [1]; 45 µM in [2]; 18.1 µM in assay [10]; greater than 100 µM in assay [3]; 64.8 µM in assay [4]; greater than 100 µM in [5]. Further, the TGI in [6], in [7], in assay [8] and in assay [9] was greater than 100 µM throughout.

Take `CO[C@@H]1O[C@H](C(=O)c2ccccc2)[C@H]2OC(C)(C)O[C@@H]12`: the TGI in [1], in [2], in [10], in [3], in assay [4] and in assay [5] was greater than 100 µM in each case. For the same molecule, the TGI in assay [6], in assay [7], in assay [8] and in assay [9] was greater than 100 µM each time.

On to `CC(NC(=O)N(C)C)NC(=O)N(C)C`, for which the TGI in assay [1], in [2], in assay [10], in [3], in [4] and in assay [5] was greater than 10 µM throughout. The TGI in [7], in assay [8] and in assay [9] was greater than 10 µM in each case.

Consider `Cc1ccc(/C=C2\Cc3c(C)cc(C)cc3C2=O)c(C(=O)O)c1`, for which the TGI in assay [1] was greater than 100 µM; in assay [2], 65.5 µM; in assay [10] it was greater than 100 µM; in [3], greater than 100 µM; in assay [4] it was greater than 100 µM; in assay [5], greater than 100 µM. The TGI in assay [6] is greater than 100 µM; in [7], 88.6 µM; in [8] it was greater than 100 µM; in [9], greater than 100 µM.

With `COC(=O)/C(C#N)=C(/NCCN)Nc1ccccc1`, the TGI in assay [1], in assay [2], in assay [10], in [3], in assay [4] and in [5] was greater than 100 µM in each case. Also, the TGI in assay [6], in [7], in assay [8] and in assay [9] was greater than 100 µM each time.

Take `COc1ccc(COCC[C@H](C)OC2OC(CO[Si](C)(C)C(C)(C)C)C(OC(=O)CCCN=[N+]=[N-])C(OC(=O)CCCN=[N+]=[N-])C2OC(=O)CCCN=[N+]=[N-])cc1` (some centres not stated): the TGI in [1] was greater than 100 µM; in [2], 41.5 µM; in assay [10] it was greater than 100 µM; in assay [3], greater than 100 µM; in assay [4] it was greater than 100 µM; in assay [5], 60.9 µM. Moreover, the TGI in assay [6], in assay [7] and in assay [9] was greater than 100 µM throughout.

As to `O=C(C(Cl)=C(N1CCOCC1)N1CCOCC1)C(Cl)Cl`, the TGI in assay [1], in assay [2], in assay [10], in assay [3], in [4] and in assay [5] was greater than 100 µM throughout. Also, the TGI in assay [7], in assay [8] and in assay [9] was greater than 100 µM in each case.

Turning to `CSc1n[nH]c(N)c1C(=O)Nc1ccccc1`, the TGI in [1], in assay [2], in [3], in assay [4], in assay [5] and in [6] was greater than 100 µM in each case. Moreover, the TGI in assay [7], in assay [8] and in [9] was greater than 100 µM in each case.

On to `COCCOCCOC1=CC(=O)c2c(O)ccc(O)c2C1=O`, for which the TGI in assay [1] amounted to 2.04 µM; in [2], 2.52 µM; in assay [10], 3.71 µM; in [3] it was 6.05 µM; in assay [4], 2.88 µM; in [5] it was 4.85 µM. The TGI in assay [7] came out at 3.68 µM; in assay [8] it was 3.28 µM; in [9], 4.51 µM.

Consider `CC(C(=O)O)C(C)(O)C(=O)O` (configuration not stated), for which the TGI in assay [1], in assay [2], in assay [3], in assay [4], in assay [5] and in assay [6] was greater than 100 µM throughout. The TGI in assay [7], in assay [8] and in assay [9] was greater than 100 µM in each case.

Turning to `COC1CC(OC2CCC3(C)C(=CCC4C3C(OC(C)=O)C(OC(=O)CC(C)C)C3(C)C(C(C)=O)CCC43O)C2)OC(C)C1OC1CC(OC)C(OC2CC(OC)C(OC3OC(C)C(OC4OC(CO)C(O)C(O)C4O)C(OC)C3O)C(C)O2)C(C)O1` (configuration not stated), the TGI in [1], in assay [2], in assay [10], in assay [3], in assay [4] and in assay [5] was greater than 75 µM throughout. The TGI in assay [6], in assay [8] and in assay [9] was greater than 75 µM in each case.

These data come from PubChem BioAssay (NCI).
